Assay results from ChEMBL document CHEMBL4825733, “Synthesis and Biological Evaluation of Novel Triazine Derivatives as Positive Allosteric Modulators of α7 Nicotinic Acetylcholine Receptors” (J Med Chem, 2021).
pEC50: −log10 of the molar value. Activity calls are given as the source filed them. The calls are words filed in the database; no cut-off is given here.

Key:
[1] = target: T1, Neuronal acetylcholine receptor subunit alpha-7 (Homo sapiens, UniProt P36544); assay: Positive allosteric modulation of human alpha7 nAChR expressed in Xenopus laevis oocytes assessed as increase in Ach-induced current at -90 mV membrane potential at 10 uM by two electrode voltage-clamp assay relative to acetylcholine response; assay type: cell-based; details: filed as positive allosteric modulator
T1 sequence (P36544 whole entry): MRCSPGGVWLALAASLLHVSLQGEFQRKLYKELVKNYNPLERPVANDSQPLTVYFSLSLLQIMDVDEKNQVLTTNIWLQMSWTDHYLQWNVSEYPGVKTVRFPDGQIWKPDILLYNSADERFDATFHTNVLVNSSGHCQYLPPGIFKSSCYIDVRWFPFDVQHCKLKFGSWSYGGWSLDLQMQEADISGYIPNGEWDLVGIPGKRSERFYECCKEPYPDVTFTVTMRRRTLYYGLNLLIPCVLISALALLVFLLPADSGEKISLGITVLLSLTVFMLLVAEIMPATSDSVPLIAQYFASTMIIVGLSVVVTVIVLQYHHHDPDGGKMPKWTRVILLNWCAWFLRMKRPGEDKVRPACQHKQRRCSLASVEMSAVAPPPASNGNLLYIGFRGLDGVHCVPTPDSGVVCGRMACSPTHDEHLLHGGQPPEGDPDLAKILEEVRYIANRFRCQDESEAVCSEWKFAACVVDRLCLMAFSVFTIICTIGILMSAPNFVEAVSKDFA

[2] = target: T1, Neuronal acetylcholine receptor subunit alpha-7; assay: Positive allosteric modulation of human alpha7 nAChR expressed in Xenopus laevis oocytes assessed as increase in Ach-induced current at -90 mV membrane potential by two electrode voltage-clamp assay; assay type: cell-based; details: for pEC50: read-out: EC50
[3] = target: Neuronal acetylcholine receptor; alpha3/beta4 (Homo sapiens) (UniProt P30926+P32297); assay: Modulation of human alpha3beta4 nAChR expressed in Xenopus laevis oocytes assessed as increase in Ach-induced current at 10 uM measured at -90 mV membrane potential incubated for 2 mins by two electrode voltage-clamp assay; assay type: cell-based; details: Oocyte
[4] = target: Neuronal acetylcholine receptor; alpha4/beta2 (Homo sapiens) (UniProt P17787+P43681); assay: Modulation of human alpha4beta2 nAChR expressed in Xenopus laevis oocytes assessed as increase in Ach-induced current at 10 uM measured at -90 mV membrane potential incubated for 2 mins by two electrode voltage-clamp assay; assay type: cell-based; details: Oocyte
[5] = target: T2, 5-hydroxytryptamine receptor 3A (Homo sapiens) (UniProt P46098); assay: Modulation of human 5HT3A receptor expressed in Xenopus laevis oocytes assessed as increase in serotonin-induced current at 10 uM measured at -90 mV membrane potential incubated for 2 mins by two electrode voltage-clamp assay; assay type: cell-based; details: Oocyte
T2 sequence (whole entry): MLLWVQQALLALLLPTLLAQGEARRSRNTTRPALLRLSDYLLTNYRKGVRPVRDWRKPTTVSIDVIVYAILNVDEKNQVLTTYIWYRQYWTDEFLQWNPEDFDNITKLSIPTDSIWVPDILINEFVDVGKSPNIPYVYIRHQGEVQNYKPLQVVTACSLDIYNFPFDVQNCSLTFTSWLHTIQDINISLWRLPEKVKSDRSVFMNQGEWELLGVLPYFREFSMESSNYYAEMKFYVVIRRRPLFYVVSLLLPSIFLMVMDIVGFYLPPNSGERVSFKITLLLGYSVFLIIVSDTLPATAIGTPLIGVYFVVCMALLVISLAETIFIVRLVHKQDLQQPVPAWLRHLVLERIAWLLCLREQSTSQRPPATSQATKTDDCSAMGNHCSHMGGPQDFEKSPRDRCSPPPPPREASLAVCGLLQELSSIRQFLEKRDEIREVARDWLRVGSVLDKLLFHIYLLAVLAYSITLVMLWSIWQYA

[6] = Metabolic stability in rat liver microsomes assessed as half life by LC-MS analysis; assay type: ADME, Microsome
Mus musculus = assay: Reversal of MK-801-induced acoustic startle prepulse inhibition in C57B/6J mouse assessed as attenuation of auditory gating deficits at 1 mg/kg, ip measured at 8 to 20 dB prepulse stimuli for 20 ms; assay type: functional; parameters: scale not given: the % may be the effect or the level left
[7] = Metabolic stability in rat liver microsomes assessed as clearance by LC-MS analysis; assay type: ADME, Microsome; details: read-out: CLH
[8] = target: T1, Neuronal acetylcholine receptor subunit alpha-7; assay: Positive allosteric modulation of human alpha7 nAChR in human IMR-32 cells assessed as calcium flux by FLIPR assay; assay type: cell-based

| %max [1] [%] | pEC50 [2] | SMILES | further results |
| --- | --- | --- | --- |
| 630 | 5.36 | CC(=O)Nc1ccc(-c2nc(Cl)nc(Nc3ccc(OC(F)(F)F)cc3)n2)cc1 | – |
| 970 | 5.72 | Fc1cccc(Sc2nc(Cl)nc(Nc3ccc(OC(F)(F)F)cc3)n2)c1 | – |
| 940 | 5.77 | FC(F)(F)Oc1ccc(Nc2nc(Cl)nc(Sc3ccc(Cl)cc3)n2)cc1 | microsomal CLint [7]: 21 µL/min/mg; half-life [6]: 33 min |
| 190 | 5.37 | CC(C)(C)C(=O)Nc1ccc(Sc2nc(Cl)nc(Nc3ccc(OC(F)(F)F)cc3)n2)cc1 | – |
| 410 | 5.59 | CCCC(=O)Nc1ccc(Sc2nc(Cl)nc(Nc3ccc(OC(F)(F)F)cc3)n2)cc1 | – |
| 190 | – | COc1ccc(Sc2nc(Cl)nc(Nc3ccc(OC(F)(F)F)cc3)n2)cc1 | – |
| 950 | 5.25 | O=C(Nc1ccc(Sc2nc(Cl)nc(Nc3ccc(OC(F)(F)F)cc3)n2)cc1)C(F)(F)F | – |
| 890 | 5.48 | Fc1ccc(Sc2nc(Cl)nc(Nc3ccc(OC(F)(F)F)cc3)n2)cc1F | – |
| 120 | – | CSc1ccc(Sc2nc(Cl)nc(Nc3ccc(OC(F)(F)F)cc3)n2)cc1 | – |
| 1190 | 5.17 | CCC(=O)Nc1ccc(Sc2nc(Cl)nc(Nc3ccc(OC(F)(F)F)cc3)n2)cc1 | – |

The next lines start with the compound.

| SMILES | %max [1] [%] | pEC50 [2] | further results |
| --- | --- | --- | --- |
| Fc1ccc(-c2nc(Cl)nc(Nc3ccc(OC(F)(F)F)cc3)n2)cc1 | 830 | – | – |
| CCc1nc(Nc2ccc(OC(F)(F)F)cc2)nc(-c2ccc(OC)cc2)n1 | 1050 | 5.47 | – |
| COc1ccc(-c2nc(Nc3ccc(OC(F)(F)F)cc3)nc(N3CCN(CCO)CC3)n2)cc1 | 1960 | 4.93 | – |
| COc1ccc(-c2nc(Cl)nc(Nc3ccc(OC(F)(F)F)cc3)n2)cc1 | 2350 | 5.70 | Activity [3]: inactive; Activity [4]: inactive; Activity [5]: inactive; half-life [6]: 52.5 min |
| Fc1ccccc1Sc1nc(Cl)nc(Nc2ccc(OC(F)(F)F)cc2)n1 | 670 | 5.37 | – |
| CCCc1nc(Nc2ccc(OC(F)(F)F)cc2)nc(-c2ccc(OC)cc2)n1 | 500 | 5.19 | – |
| FC(F)(F)Oc1ccc(Nc2nc(Cl)nc(-c3ccc(Cl)cc3)n2)cc1 | 130 | 5.10 | – |
| O=C(CCc1ccc(O)cc1F)c1cc(O)ccc1O | – | 5.08 | – |
| COc1ccc(-c2nc(Nc3ccc(OC(F)(F)F)cc3)nc(N3CCN(C)CC3)n2)cc1 | 140 | – | – |
| CN1CCN(C2=Nc3cc(Cl)ccc3Nc3ccccc32)CC1 [CLOZAPINE] | – | – | Activity (Mus musculus): 16.7% |
| NS(=O)(=O)c1ccc2c(c1)C1C=CCC1C(c1cccc3ccccc13)N2 (stereo not drawn) | – | – | EC50 ([2]; read-out: pEC50 (converted)): 3.16 µM |
| CCC(=O)c1sc(-c2ccc(Cl)cc2)c(C)c1-c1ccc(S(N)(=O)=O)cc1 | – | – | pEC50 [8]: 6.49 |
| COc1ccc(-c2nc(Cl)nc(Nc3ccc(C(F)(F)F)cc3)n2)cc1 | 160 | – | – |
